The target in the test is T1, Beta-secretase 2 (Homo sapiens, UniProt Q9Y5Z0).
T1 sequence (Q9Y5Z0 whole entry): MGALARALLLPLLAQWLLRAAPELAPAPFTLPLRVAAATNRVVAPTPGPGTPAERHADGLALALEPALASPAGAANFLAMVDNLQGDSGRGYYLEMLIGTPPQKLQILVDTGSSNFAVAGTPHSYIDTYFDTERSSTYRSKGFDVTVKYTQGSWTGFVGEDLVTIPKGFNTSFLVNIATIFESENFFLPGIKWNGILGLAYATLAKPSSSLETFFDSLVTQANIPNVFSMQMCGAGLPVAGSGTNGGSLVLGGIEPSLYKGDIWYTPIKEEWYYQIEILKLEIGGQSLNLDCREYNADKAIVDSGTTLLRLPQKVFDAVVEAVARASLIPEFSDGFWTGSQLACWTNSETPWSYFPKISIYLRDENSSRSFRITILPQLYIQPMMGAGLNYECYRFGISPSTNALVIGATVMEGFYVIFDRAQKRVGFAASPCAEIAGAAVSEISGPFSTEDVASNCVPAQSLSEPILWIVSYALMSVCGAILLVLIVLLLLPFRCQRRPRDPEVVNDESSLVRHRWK
In words: Enzyme Inhibition Assay.

The structures appear in SMILES notation.

As usually defined, the IC50 is the concentration needed to halve the response being measured. `CCNc1cc(C(=O)N[C@@H](Cc2ccccc2)[C@H](O)CNCc2cccc(C(F)(F)F)c2)cc(N2CCCCS2(=O)=O)c1` [BMCL193664 Compound 24] showed an IC50 of 1.41 µM.

For the origin of these results see BindingDB's records for doi:10.1016/j.bmcl.2009.03.165 (Gsk, 2009).
